Results as given in patent publication US12441695B2, “Substituted thiadiazinone dioxide and preparation method therefor, herbicidal composition, and application therefor” (Qingdao Kingagroot Chemical Compound Co., Ltd., priority 2019, dated 2025).

Legend:
[1] = system: monocotyledonous and dicotyledonous weeds; test: Experiment on weeding effect in post-emergence stage (weeds); format: in vivo; details: 600 g/ha active ingredient plus water 450 kg/ha, 3 weeks after application, fresh weight control rate; for Amaranthus retroflexus activity level (growth control rate): fomesafen-resistant Amaranthus retroflexus
Summary of the method: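 Greenhouse pot-grown weeds and crops sprayed post-emergence 2–3 weeks after sowing with compound in acetone/Tween 80/water. Fresh-weight growth control scored after 3 weeks on a 0–5 scale (5: >85%, 0: <5%).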

[2] = system: major crops (wheat, corn, rice, soybean, cotton, oilseed rape, millet, sorghum); test: Experiment on weeding effect in post-emergence stage (crops); format: in vivo; details: 600 g/ha active ingredient plus water 450 kg/ha, 3 weeks after application; for corn plant damage level (growth control rate): crop corn; for rice plant damage level (growth control rate): crop rice; for soybean plant damage level (growth control rate): crop soybean
Summary of the method: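 Weed and crop seeds were sown in soil-filled pots, covered with 0.5–2 cm soil and grown in a greenhouse. Plants were sprayed 2–3 weeks after sowing using a spray tower, with compound dissolved in acetone plus Tween 80 and diluted in water. Effect was expressed as fresh-weight growth control rate.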

Row | SMILES | Amaranthus retroflexus activity level (growth control rate) [1] | Echinochloa crus-galli activity level (growth control rate) [1] | corn plant damage level (growth control rate) [2] | rice plant damage level (growth control rate) [2] | soybean plant damage level (growth control rate) [2] | Digitaria sanguinalis activity level (growth control rate) [1] | Setaria viridis activity level (growth control rate) [1]
1 | CCS(=O)(=O)N1c2ccc(F)cc2C(=O)N(C(C)C)S1(=O)=O [Compound 195] | 3 (Level 3: growth control rate is greater than or equal to 40% and less than 60%) | 3 (Level 3: growth control rate is greater than or equal to 40% and less than 60%) | 0 (Level 0: growth control rate is less than 5%) | 0 (Level 0: growth control rate is less than 5%) | 0 (Level 0: growth control rate is less than 5%) |  | 
2 | CCCS(=O)(=O)N1c2ccc(F)cc2C(=O)N(C(C)C)S1(=O)=O [Compound 196] | 5 (Level 5: growth control rate is above 85%) | 5 (Level 5: growth control rate is above 85%) | 0 (Level 0: growth control rate is less than 5%) |  | 0 (Level 0: growth control rate is less than 5%) | 3 (Level 3: growth control rate is greater than or equal to 40% and less than 60%) | 5 (Level 5: growth control rate is above 85%)
3 | COc1ccc(CN2c3ccc(F)cc3C(=O)N(C(C)C)S2(=O)=O)cc1 [Compound 197] | 3 (Level 3: growth control rate is greater than or equal to 40% and less than 60%) |  | 0 (Level 0: growth control rate is less than 5%) | 0 (Level 0: growth control rate is less than 5%) | 0 (Level 0: growth control rate is less than 5%) |  | 
4 | CC(C)N1C(=O)c2cc(F)cc(Br)c2N(C(=O)C2CC2)S1(=O)=O [Compound 199] | 5 (Level 5: growth control rate is above 85%) |  | 0 (Level 0: growth control rate is less than 5%) | 1 (Level 1: growth control rate is greater than or equal to 500 and less than 200%) |  |  | 5 (Level 5: growth control rate is above 85%)
5 | COCN1c2c(F)cc(F)cc2C(=O)N(C(C)C)S1(=O)=O [Compound 213] | 3 (Level 3: growth control rate is greater than or equal to 40% and less than 60%) |  | 0 (Level 0: growth control rate is less than 5%) | 1 (Level 1: growth control rate is greater than or equal to 500 and less than 200%) | 0 (Level 0: growth control rate is less than 5%) |  | 
6 | CCC(=O)N1c2c(F)cc(F)cc2C(=O)N(C(C)C)S1(=O)=O [Compound 214] | 5 (Level 5: growth control rate is above 85%) | 4 (Level 4: growth control rate is greater than or equal to 60% and less than 85%) | 0 (Level 0: growth control rate is less than 5%) |  |  | 5 (Level 5: growth control rate is above 85%) | 5 (Level 5: growth control rate is above 85%)
7 | CC(C)C(=O)N1c2c(F)cc(F)cc2C(=O)N(C(C)C)S1(=O)=O [Compound 215] | 5 (Level 5: growth control rate is above 85%) | 5 (Level 5: growth control rate is above 85%) | 1 (Level 1: growth control rate is greater than or equal to 500 and less than 200%) |  |  | 5 (Level 5: growth control rate is above 85%) | 5 (Level 5: growth control rate is above 85%)
